Patent US20230270804A1, “ANTI-HYPERCHOLESTEROLEMIA COMPOSITION AND A METHOD OF MANUFACTURING THE SAME” (NBI BIOSCIENCES PRIVATE LIMITED, priority 2020, published 2023)

What was measured:
Format in all cases: in vivo, Wistar strain albino rats
[1] = system: hypercholesterolemia induced wistar rats' models; assay: Therapeutic study: lipid profile (TC, TG, HDL-C, LDL-C, VLDL)
Experimental: Wistar strain albino rats of body weight ranging from 190-225 g were selected for the present study. The temperature and humidity were kept at optimum (22+2° C.; 40-70% and animals were exposed to natural chronological day night cycles. The experiments were carried out in conformity with the Institutional Animal Ethics Committee.
The 6 groups were as follows: • 1. Normal Control • 2.
(§1) 1.5-2 ml blood sample was taken from retino-orbital chamber in vials for biochemical estimations at every 15 days. Investigations performed included detailed Total Cholesterol—TC (mg/dl), Triglyceride—TG (mg/dl), High Density Lipoprotein—HDL-C (mg/dl), Low Density Lipoprotein—LDL-C (mg/dl), Very Low-Density Lipoprotein—VLDL (mg/dl), WBC (10^3/u1), RBC (10^6/u1), Hb (g/dl), PCV (%), Reticulocyte (%), Platelet count 10^5/mm^3, Clotting time (Sec), Neutrophils, Lymphocyte, Monocyte and Eosinophil. The estimations were done with Ecoline kits from Erba Mannheim, ERBA diagnostics Mannheml, Germany using Semi Autoanalyzer RX50 of MicroLabs Instruments and COUNCELL21 of Tulip Diagnostics Pvt. Ltd. Lipid peroxidation (Plasma & Liver), HMG Co-Reductase, Creatine phosphokinase (CPK), Lactate dehydrogenase (LDH), SGOT and SGPT were estimated at the end of both the studies using the kits.

[2] = target: T1, HMG CoA Reductase (Rattus norvegicus, UniProt P51639); assay: Therapeutic study: HMG CoA reductase activity in liver homogenate; details: after necropsy
T1 construct: The tissue homogenate was prepared by homogenizing 1 gm of tissue (liver) with 10 ml of saline arsenate solution; from tissue; host or cells: rat liver homogenate
T1 sequence (P51639 1-887): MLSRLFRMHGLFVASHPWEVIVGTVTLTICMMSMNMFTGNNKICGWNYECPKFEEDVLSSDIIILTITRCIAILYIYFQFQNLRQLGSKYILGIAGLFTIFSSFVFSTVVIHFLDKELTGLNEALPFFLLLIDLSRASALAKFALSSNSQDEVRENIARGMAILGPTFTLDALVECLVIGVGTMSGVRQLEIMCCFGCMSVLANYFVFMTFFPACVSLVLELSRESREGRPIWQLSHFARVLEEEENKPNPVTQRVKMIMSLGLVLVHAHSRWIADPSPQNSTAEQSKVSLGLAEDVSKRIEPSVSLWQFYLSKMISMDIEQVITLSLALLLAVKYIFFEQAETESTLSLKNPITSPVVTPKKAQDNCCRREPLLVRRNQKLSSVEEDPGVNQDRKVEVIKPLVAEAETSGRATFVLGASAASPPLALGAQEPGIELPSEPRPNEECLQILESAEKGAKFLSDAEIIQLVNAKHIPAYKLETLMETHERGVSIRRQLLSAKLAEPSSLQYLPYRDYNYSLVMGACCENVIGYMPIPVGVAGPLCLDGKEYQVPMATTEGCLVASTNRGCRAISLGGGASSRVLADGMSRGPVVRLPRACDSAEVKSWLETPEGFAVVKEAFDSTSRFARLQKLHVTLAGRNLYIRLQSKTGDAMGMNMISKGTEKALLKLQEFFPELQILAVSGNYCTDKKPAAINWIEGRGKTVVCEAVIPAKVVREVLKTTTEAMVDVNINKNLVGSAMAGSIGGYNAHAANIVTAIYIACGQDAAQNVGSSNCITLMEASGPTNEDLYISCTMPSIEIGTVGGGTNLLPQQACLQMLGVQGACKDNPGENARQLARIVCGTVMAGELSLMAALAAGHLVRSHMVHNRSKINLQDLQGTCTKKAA
Experimental: as §1
The tissue homogenate was prepared by homogenizing 1 gm of tissue (liver) with 10 ml of saline arsenate solution. Further equal volumes of the fresh 10% tissue homogenate and diluted perchloric acid were mixed and allowed to stand for 5 minute and centrifuge (2000 rpm, 10 minutes). […] The readings were taken after 10 minutes at 540 nm vs. a similarly treated saline/arsenate blank.

[3] = Prophylactic study: organ weights after sacrifice; details: HFD+normal diet
Experimental: The prophylactic study which lasted 90 days used 6 rats per group. […] The 6 groups were as follows: • 1. Normal Control • 2. High Fat Diet (HFD) 1 ml 1/d+Normal Diet • 3. High Fat Diet (HFD)+Normal Diet+the composition of the present invention (OD) • 4, High Fat Diet (HFD)+Normal Diet+the composition of the present invention (BD) • 5. […] The body weights were recorded to the nearest gram (g) with proper tare to 0.0000 with the subject at steady state on the weighing machine. The same weighing machine was used for all the subjects. The machine was tested with a known set of weights for any error.

For CC(C)c1c(C(=O)Nc2ccccc2)c(-c2ccccc2)c(-c2ccc(F)cc2)n1CC[C@@H](O)C[C@@H](O)CC(=O)O [Statin, Atorvastatin], the HDL-C ([1]; HFD continued, day 0) was 40.33 ± 2.08 mg/dL, the LDL-C ([1]; HFD continued, day 0) was 91.67 ± 3.06 mg/dL and the TC ([1]; HFD continued, day 0) was 139.67 ± 4.04 mg/dL. The TG ([1]; HFD continued, day 0) was 38.67 ± 2.08 mg/dL, the VLDL ([1]; HFD continued, day 0) was 3.87 ± 0.31 mg/dL and the HDL-C ([1]; HFD continued, day 15) was 40.83 ± 1.15 mg/dL. The LDL-C ([1]; HFD continued, day 15) was 92.83 ± 3.82 mg/dL, the TC ([1]; HFD continued, day 15) was 138.00 ± 4.00 mg/dL and the TG ([1]; HFD continued, day 15) was 38.00 ± 1.80 mg/dL. For the same compound, the HDL-C ([1]; HFD continued, day 30) was 42.45 ± 0.44 mg/dL, the LDL-C ([1]; HFD continued, day 30) was 91.33 ± 0.21 mg/dL and the TC ([1]; HFD continued, day 30) was 134.00 ± 3.00 mg/dL. The TG ([1]; HFD continued, day 30) was 37.30 ± 0.44 mg/dL, the VLDL ([1]; HFD continued, day 30) was 3.91 ± 0.05 mg/dL and the HDL-C ([1]; HFD continued, day 45) was 40.20 ± 2.07 mg/dL. The LDL-C ([1]; HFD continued, day 45) was 90.37 ± 0.85 mg/dL, the TC ([1]; HFD continued, day 45) was 126.33 ± 4.51 mg/dL and the TG ([1]; HFD continued, day 45) was 34.73 ± 1.37 mg/dL. It also gave a VLDL ([1]; HFD continued, day 45) of 3.86 ± 0.11 mg/dL, an HDL-C ([1]; HFD continued, day 60) of 39.82 ± 1.88 mg/dL and an LDL-C ([1]; HFD continued, day 60) of 89.52 ± 1.20 mg/dL. The TC ([1]; HFD continued, day 60) was 125.15 ± 4.20 mg/dL, the TG ([1]; HFD continued, day 60) was 34.41 ± 1.26 mg/dL and the VLDL ([1]; HFD continued, day 60) was 3.82 ± 0.10 mg/dL. It also gave an HDL-C ([1]; HFD discontinued, day 0) of 41.67 ± 1.53 mg/dL, an LDL-C ([1]; HFD discontinued, day 0) of 90.67 ± 3.21 mg/dL and a TC ([1]; HFD discontinued, day 0) of 134.33 ± 4.04 mg/dL. It also gave a TG ([1]; HFD discontinued, day 0) of 38.33 ± 2.52 mg/dL, a VLDL ([1]; HFD discontinued, day 0) of 3.83 ± 0.38 mg/dL and an HDL-C ([1]; HFD discontinued, day 15) of 40.17 ± 0.58 mg/dL. The LDL-C ([1]; HFD discontinued, day 15) was 90.60 ± 3.55 mg/dL, the TC ([1]; HFD discontinued, day 15) was 133.00 ± 4.58 mg/dL and the TG ([1]; HFD discontinued, day 15) was 37.50 ± 2.00 mg/dL. The VLDL ([1]; HFD discontinued, day 15) was 3.91 ± 0.34 mg/dL, the HDL-C ([1]; HFD discontinued, day 30) was 41.23 ± 0.38 mg/dL and the LDL-C ([1]; HFD discontinued, day 30) was 85.03 ± 0.21 mg/dL. For the same compound, the TC ([1]; HFD discontinued, day 30) was 129.33 ± 2.08 mg/dL, the TG ([1]; HFD discontinued, day 30) was 35.97 ± 0.74 mg/dL and the VLDL ([1]; HFD discontinued, day 30) was 3.88 ± 0.04 mg/dL. It also gave an HDL-C ([1]; HFD discontinued, day 45) of 39.70 ± 0.46 mg/dL, a TC ([1]; HFD discontinued, day 45) of 117.67 ± 6.66 mg/dL and a TG ([1]; HFD discontinued, day 45) of 34.53 ± 0.83 mg/dL. For the same compound, the VLDL ([1]; HFD discontinued, day 45) was 3.69 ± 0.05 mg/dL, the HDL-C ([1]; HFD discontinued, day 60) was 38.94 ± 0.82 mg/dL and the LDL-C ([1]; HFD discontinued, day 60) was 83.69 ± 1.18 mg/dL. For the same compound, the TC ([1]; HFD discontinued, day 60) was 116.49 ± 6.04 mg/dL, the TG ([1]; HFD discontinued, day 60) was 34.19 ± 0.83 mg/dL and the “level of HDL” value ([1]; therapeutic study, 60 days) was 39 mg/dL. The “reduction in LDL” value ([1]; therapeutic study, 60 days) was 8%, the “reduction in total cholesterol” value ([1]; therapeutic study, 60 days) was 13% and the “HMG Co Reductase” value ([2]; HFD Continued) was 224.83 ± 18.48 U/mg. For the same compound, the “HMG Co Reductase” value ([2]; HFD Discontinued) was 170.03 ± 2.71 U/mg, the Heart weight [3] was 2.79 ± 0.03 g/100 g bd · wt and the Intestine weight [3] was 3.54 ± 0.03. The Kidney weight [3] was 1.15 ± 0.03 g/100 g bd · wt, the Liver weight [3] was 3.90 ± 0.05 g/100 g bd · wt and the Lungs weight [3] was 1.96 ± 0.02 g/100 g bd · wt. For the same compound, the Spleen weight [3] was 0.65 ± 0.03 and the pancreas weight [3] was 0.90 ± 0.05 g/100 g bd · wt.
